Where a SMILES comes first, the peptide text is derived from it. Bridges are numbered along the chain shown (N, C = ends). [ ]: non-standard residue; d: D form. ξ: configuration not given here. Bip(3'-COOH) = N[C@@H](Cc1ccc(-c2cccc(C(=O)O)c2)cc1)C(=O)O; Bip = N[C@@H](Cc1ccc(-c2ccccc2)cc1)C(=O)O; Cha = N[C@@H](CC1CCCCC1)C(=O)O; Ile(3ξ) = CCC(C)[C@H](N)C(=O)O; Orn = NCCC[C@H](N)C(=O)O; Dab = NCC[C@H](N)C(=O)O

For this experiment, the target named is T1, human PD-1 / PD-L1-Ig binding on Jurkat cell line over-expressing human PD-1 (Jurkat-PD-1) (Homo sapiens, UniProt Q15116).
T1 construct: expressed in transfected cells; host or cells: Jurkat
T1 sequence (Q15116 25-288): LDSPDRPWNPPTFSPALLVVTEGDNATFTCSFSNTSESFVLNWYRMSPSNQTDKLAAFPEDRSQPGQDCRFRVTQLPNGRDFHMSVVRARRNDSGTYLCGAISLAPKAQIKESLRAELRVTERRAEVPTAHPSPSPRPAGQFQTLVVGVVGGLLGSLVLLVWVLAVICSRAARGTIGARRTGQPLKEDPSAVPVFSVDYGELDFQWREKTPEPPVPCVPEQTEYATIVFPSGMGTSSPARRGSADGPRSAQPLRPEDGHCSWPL
Nature of the experiment: Jurkat-PD-1 Cell Binding High-Content Screening Assay (CBA). Type of experiment: cell-based. As to conditions: Jurkat-PD-1 cells, PE-labeled PD-L1-Ig 20 nM final; read-out: Jurkat HPD1_PDL1 IC50. The method in brief: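 Jurkat-hPD-1 cells in DMEM with 10% fetal calf serum receive test compound and are held at 37° C for 2 h. PE-labeled PD-L1-Ig is added at 20 nM final and left for 1 hour. Cells are then fixed and Hoechst-stained, and binding is measured by imaging.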
On to `CCC(C)[C@@H]1NC(=O)[C@H](Cc2ccc(-c3ccccc3)cc2)NC(=O)[C@H](C(C)C)NC(=O)[C@H](Cc2c[nH]c3ccccc23)NC(=O)[C@H](CC(=O)O)NC(=O)[C@H](Cc2ccc(-c3cccc(C(=O)O)c3)cc2)NC(=O)[C@H](Cc2ccccc2)NC(=O)CSC[C@@H](C(=O)N[C@@H](C)C(N)=O)NC(=O)[C@H]([C@@H](C)O)NC(=O)[C@H](C(C)C)NC(=O)[C@H](CC2CCCCC2)NC(=O)[C@H](CCN)NC(=O)[C@@H](CC(C)C)NC(=O)[C@H](CCCN)NC1=O` (stereo partly drawn) [Compound 2218] ({CH2CO}-F[Bip(3'-COOH)]DWV[Bip][Ile(3ξ)][Orn][dL][Dab][Cha]VTCA-NH2; thioether N-14), for which the IC50 was found to be 50.1 nM.
For the molecule `CCC(C)[C@@H]1NC(=O)[C@H](Cc2ccc(-c3ccccc3)cc2)NC(=O)[C@H](C(C)C)NC(=O)[C@H](Cc2c[nH]c3ccccc23)NC(=O)[C@H](CC(=O)O)NC(=O)[C@H](Cc2ccc(-c3cccc(C(=O)O)c3)cc2)NC(=O)[C@H](CN)NC(=O)CSC[C@@H](C(=O)N[C@@H](C)C(N)=O)NC(=O)[C@H]([C@@H](C)O)NC(=O)[C@H](C(C)C)NC(=O)[C@H](CC2CCCCC2)NC(=O)[C@H](CCN)NC(=O)[C@@H](CC(C)C)NC(=O)[C@H](CCCN)NC1=O` (stereo partly shown) [Compound 2219], the IC50 is 13.4 nM.
Regarding `CCC(C)[C@@H]1NC(=O)[C@H](Cc2ccc(-c3ccccc3)cc2)NC(=O)[C@H](C(C)C)NC(=O)[C@H](Cc2c[nH]c3ccccc23)NC(=O)[C@H](CC(=O)O)NC(=O)[C@H](Cc2ccc(-c3cccc(C(=O)O)c3)cc2)NC(=O)[C@H](Cc2ccc(OCC(=O)O)cc2)NC(=O)CSC[C@@H](C(=O)N[C@@H](C)C(N)=O)NC(=O)[C@H]([C@@H](C)O)NC(=O)[C@H](C(C)C)NC(=O)[C@H](CC2CCCCC2)NC(=O)[C@H](CCN)NC(=O)[C@@H](CC(C)C)NC(=O)[C@H](CCCN)NC1=O` (stereo partly shown) [Compound 2220], the IC50 came to 34.6 nM.
In the case of `CCC(C)[C@@H]1NC(=O)[C@H](Cc2ccc(-c3ccccc3)cc2)NC(=O)[C@H](C(C)C)NC(=O)[C@H](Cc2c[nH]c3ccccc23)NC(=O)[C@H](CC(=O)O)NC(=O)[C@H](Cc2ccc(-c3cccc(C(=O)O)c3)cc2)NC(=O)[C@H](Cc2ccncc2)NC(=O)CSC[C@@H](C(=O)N[C@@H](C)C(N)=O)NC(=O)[C@H]([C@@H](C)O)NC(=O)[C@H](C(C)C)NC(=O)[C@H](CC2CCCCC2)NC(=O)[C@H](CCN)NC(=O)[C@@H](CC(C)C)NC(=O)[C@H](CCCN)NC1=O` (stereo partly shown) [Compound 2221], the IC50 was determined as 32.1 nM.
The value for `CCC(C)[C@@H]1NC(=O)[C@H](Cc2ccc(-c3ccccc3)cc2)NC(=O)[C@H](C(C)C)NC(=O)[C@H](Cc2cccc(C)c2)NC(=O)[C@H](CC(=O)O)NC(=O)[C@H](Cc2ccc(-c3cccc(C(=O)O)c3)cc2)NC(=O)[C@H](CC(N)=O)NC(=O)CSC[C@@H](C(=O)N[C@@H](C)C(N)=O)NC(=O)[C@H]([C@@H](C)O)NC(=O)[C@H](C(C)C)NC(=O)[C@H](CC2CCCCC2)NC(=O)[C@H](CCN)NC(=O)[C@@H](CC(C)C)NC(=O)[C@H](CCCN)NC1=O` (stereo partly shown) [Compound 2222] was 25 nM.
The value for `CCC(C)[C@@H]1NC(=O)[C@H](Cc2ccc(-c3ccccc3)cc2)NC(=O)[C@H](C(C)C)NC(=O)[C@H](Cc2cccc(C)c2)NC(=O)[C@H](CC(=O)O)NC(=O)[C@H](Cc2ccc(-c3cccc(C(=O)O)c3)cc2)NC(=O)[C@H](Cc2ccccc2)NC(=O)CSC[C@@H](C(=O)N[C@@H](C)C(N)=O)NC(=O)[C@H]([C@@H](C)O)NC(=O)[C@H](C(C)C)NC(=O)[C@H](CC2CCCCC2)NC(=O)[C@H](CCN)NC(=O)[C@@H](CC(C)C)NC(=O)[C@H](CCCN)NC1=O` (stereo partly shown) [Compound 2223] was 74.8 nM; that for `CCC(C)[C@@H]1NC(=O)[C@H](Cc2ccc(-c3ccccc3)cc2)NC(=O)[C@H](C(C)C)NC(=O)[C@H](Cc2cccc(C)c2)NC(=O)[C@H](CC(=O)O)NC(=O)[C@H](Cc2ccc(-c3cccc(C(=O)O)c3)cc2)NC(=O)[C@H](CN)NC(=O)CSC[C@@H](C(=O)N[C@@H](C)C(N)=O)NC(=O)[C@H]([C@@H](C)O)NC(=O)[C@H](C(C)C)NC(=O)[C@H](CC2CCCCC2)NC(=O)[C@H](CCN)NC(=O)[C@@H](CC(C)C)NC(=O)[C@H](CCCN)NC1=O` (stereo partly shown) [Compound 2224] was 14.1 nM.

Source of the values: patent US20250163104A1, “MACROCYCLIC IMMUNOMODULATORS” (priority 2021, published 2025).
